From patent US4220755A, “Fortimicin B derivatives and process for production thereof” (Abbott Laboratories, priority 1976, dated 1980)
In brackets after ≈: the same amount, converted by molar mass.

What was measured:
Escherichia coli NIHTC-2 = test: MIC, agar dilution method, pH 7.2; assay type: cell-based; conditions: Escherichia coli, NIHTC2, pH 7.2, read-out: Minimum inhibition concentration (MIC)
Procedure: (§1) Measurement was carried out according to the agar dilution method, using a medium of pH 8.0, or the Japanese Antibiotic Medicament Standard, using a medium of pH 7.2 Units are in mcg/ml.

[1] = test system: Eschericihia coli GN2411-5; test: MIC, agar dilution method, pH 7.2; assay type: cell-based; conditions: Escherichia coli, GN2411, pH 7.2, read-out: Minimum inhibition concentration (MIC)
Procedure: as §1

[2] = test system: Klebsiella pneumoniae KY4274; test: MIC, agar dilution method, pH 7.2; assay type: cell-based; conditions: Klebsiella pneumoniae, KY4274, pH 7.2, read-out: Minimum inhibition concentration (MIC)
Procedure: as §1

Proteus vulgaris JJ = test: MIC, agar dilution method, pH 7.2; assay type: cell-based; conditions: Proteus vulgaris, pH 7.2, read-out: Minimum inhibition concentration (MIC)
Procedure: as §1

[3] = test system: Pseudomonas aeruginosa BMH# 1; test: MIC, agar dilution method, pH 7.2; assay type: cell-based; conditions: Pseudomonas aeruginosa, pH 7.2, read-out: Minimum inhibition concentration (MIC)
Procedure: as §1

[4] = test system: Pseudomonas aeruginosa UCLA 4184; test: MIC, agar dilution method, pH 7.2; assay type: cell-based; conditions: Pseudomonas aeruginosa, UCLA4184, pH 7.2, read-out: Minimum inhibition concentration (MIC)
Procedure: as §1

[5] = test system: Salmonella enteritidis G-14; test: MIC, agar dilution method, pH 7.2; assay type: cell-based; conditions: Salmonella enterica, ENTERITIDIS, pH 7.2, read-out: Minimum inhibition concentration (MIC)
Procedure: as §1

Shigella sonnei ATCC9290 = test: MIC, agar dilution method, pH 7.2; assay type: cell-based; conditions: read-out: Minimum inhibition concentration (MIC)
Procedure: as §1

[6] = test system: Staphylococcus aureus 209-P; test: MIC, agar dilution method, pH 7.2; assay type: cell-based; conditions: Staphylococcus aureus, 209P, pH 7.2, read-out: Minimum inhibition concentration (MIC)
Procedure: as §1

[7] = test system: Staphylococcus aureus Smith (A); test: MIC, agar dilution method, pH 7.2; assay type: cell-based; conditions: Staphylococcus aureus, pH 7.2, read-out: Minimum inhibition concentration (MIC)
Procedure: as §1

[8] = test system: Staphylococcus a ureus 226; test: MIC, agar dilution method, pH 7.2; assay type: cell-based, Staphylococcus aureus; conditions: pH 7.2, read-out: Minimum inhibition concentration (MIC)
Procedure: as §1

Eschericihia coli 3100 = test: MIC, agar dilution method, pH 7.2; assay type: cell-based, Escherichia coli; conditions: Escherichia coli, 3100, pH 7.2, read-out: Minimum inhibition concentration (MIC)
Procedure: as §1

[9] = test system: Escherichia coli 57R/W677; test: MIC, agar dilution method, pH 7.2; assay type: cell-based; conditions: 57R/W677, pH 7.2, read-out: Minimum inhibition concentration (MIC)
Procedure: as §1
(§2) **1: gentamicin, producing adenylsynthetase.

Escherichia coli 76-2 = test: MIC, agar dilution method, pH 7.2; assay type: cell-based; conditions: Escherichia coli, 762, pH 7.2, read-out: Minimum inhibition concentration (MIC)
Procedure: as §1, §2

[10] = test system: Escherichia coli R12 Z-338; test: MIC, agar dilution method, pH 7.2; assay type: cell-based; conditions: R12Z338, pH 7.2, read-out: Minimum inhibition concentration (MIC)
Procedure: as §1, §2

[11] = test system: Klebsiella pneumoniae 3020 Y-60; test: MIC, agar dilution method, pH 7.2; assay type: cell-based; conditions: Klebsiella pneumoniae, 3020Y60, pH 7.2, read-out: Minimum inhibition concentration (MIC)
Procedure: as §1, §2

[12] = test system: Escherichia coli R18 KY8321; test: MIC, agar dilution method, pH 7.2; assay type: cell-based; conditions: R18KY8321, E. coli R18 KY8321, 2**: gentamicin, producing adenylsynthetase and neomycin phosphotransferase type II, read-out: Minimum inhibition concentration (MIC)
Procedure: as §1
2: gentamicin, producing adenylsynthetase and neomycin phosphotransferase

[13] = test system: Escherichia coli R17 Z343; test: MIC, agar dilution method, pH 7.2; assay type: cell-based; conditions: R17Z343, pH 7.2, read-out: Minimum inhibition concentration (MIC)
Procedure: as §1
(§3) 3: kanamycin, producing acetyltransferase.

[14] = test system: Pseudomonas aeruginosa R9 KY8516; test: MIC, agar dilution method, pH 7.2; assay type: cell-based; conditions: R9KY8516, pH 7.2, read-out: Minimum inhibition concentration (MIC)
Procedure: as §1, §3

Serratia marcescens 1065 = test: MIC, agar dilution method, pH 7.2; assay type: cell-based; conditions: Serratia marcescens, 1065, pH 7.2, read-out: Minimum inhibition concentration (MIC)
Procedure: as §1, §3

[15] = test system: Escherichia coli R20 KY8349; test: MIC, agar dilution method, pH 7.2; assay type: cell-based; conditions: R20KY8349, pH 7.2, E. coli R20 KY8349, 5**: neomycin, producing phosphotransferase type I, read-out: Minimum inhibition concentration (MIC)
Procedure: as §1
5: neomycin, producing phosphotransferase type I.

[16] = test system: Pseudomonas aeruginosa R5 KY8512; test: MIC, agar dilution method, pH 7.2; assay type: cell-based; conditions: R5KY8512, pH 7.2, read-out: Minimum inhibition concentration (MIC)
Procedure: as §1
6: neomycin, producing phosphotransferase type I and type II.

Providencia sp 164 = test: MIC, agar dilution method, pH 7.2; assay type: cell-based; conditions: Providencia, 164, pH 7.2, read-out: Minimum inhibition concentration (MIC)
Procedure: as §1
7: gentamicin, producing acetyltransferase type II.

[17] = test system: Staphylococcus aureus KY4279 ATCC6538P; test: MIC, agar dilution method, pH 8.0; assay type: cell-based; conditions: pH 8.0, Staphylococcus aureus KY4279, read-out: Minimum inhibition concentration (MIC), SA
Procedure: as §1
S.A.: Staphylococcus aureus KY4279 ATCC6538P

Bacillus subtilis KY4273 = test: MIC, agar dilution method, pH 8.0; assay type: cell-based; conditions: pH 8.0; Bacillus subtilis KY4273; read-out: Minimum inhibition concentration (MIC), BS
Procedure: as §1
B.S.: Bacillus subtilis KY4273

[18] = test system: Proteus vulgaris KY4277 ATCC6897; test: MIC, agar dilution method, pH 8.0; assay type: cell-based; conditions: ATCC6897; pH 8.0; Proteus vulgaris KY4277; read-out: Minimum inhibition concentration (MIC), PV
Procedure: as §1

[19] = test system: Shigella sonnei KY4281 ATCC9290; test: MIC, agar dilution method, pH 8.0; assay type: cell-based; conditions: ATCC9290; pH 8.0; Shigella sonnei KY4281; read-out: Minimum inhibition concentration (MIC), SS
Procedure: as §1

[20] = test system: Salmonella typhosa KY4278 ATCC9992; test: MIC, agar dilution method, pH 8.0; assay type: cell-based; conditions: Salmonella enterica, pH 8, read-out: Minimum inhibition concentration (MIC), ST
Procedure: as §1
S.T.: Salmonella typhosa KY4278 ATCC9992

[21] = test system: Klebsiella pneumoniae KY4275 ATCC10031; test: MIC, agar dilution method, pH 8.0; assay type: cell-based; conditions: Klebsiella pneumoniae, ATCC10031, pH 8, read-out: Minimum inhibition concentration (MIC), KP
Procedure: as §1
K.P.: Klebsiella pneumoniae KY4275 ATCC10031.

SMILES: CO[C@H]1[C@@H](O)[C@H](N)[C@@H](O[C@H]2O[C@H]([C@H](C)N)CC[C@H]2N)[C@H](O)[C@@H]1N(C)C(=O)CN [Compound 2, 4-N-glycylfortimicin B, reference compound]
- MIC (Escherichia coli NIHTC-2): 3.12 µg/mL (≈ 7.69 µM)
- MIC [1]: 6.25 µg/mL (≈ 15.4 µM)
- MIC [2]: 3.12 µg/mL (≈ 7.69 µM)
- MIC (Proteus vulgaris JJ): 3.12 µg/mL (≈ 7.69 µM)
- MIC [3]: 12.5 µg/mL (≈ 30.8 µM)
- MIC [4]: 25 µg/mL (≈ 61.7 µM)
- MIC [5]: 6.25 µg/mL (≈ 15.4 µM)
- MIC (Shigella sonnei ATCC9290): 6.25 µg/mL (≈ 15.4 µM)
- MIC [6]: 0.78 µg/mL (≈ 1.92 µM)
- MIC [7]: 0.78 µg/mL (≈ 1.92 µM)
- MIC [8]: 0.78 µg/mL (≈ 1.92 µM)
- MIC (Eschericihia coli 3100): 6.25 µg/mL (≈ 15.4 µM)
- MIC [9]: 12.5 µg/mL (≈ 30.8 µM)
- MIC (Escherichia coli 76-2): 3.12 µg/mL (≈ 7.69 µM)
- MIC [10]: 12.5 µg/mL (≈ 30.8 µM)
- MIC [11]: 12.5 µg/mL (≈ 30.8 µM)
- MIC [12]: 3.12 µg/mL (≈ 7.69 µM)
- MIC [13]: 1.56 µg/mL (≈ 3.85 µM)
- MIC [14]: 50 µg/mL (≈ 123 µM)
- MIC (Serratia marcescens 1065): 6.25 µg/mL (≈ 15.4 µM)
- MIC [15]: 3.12 µg/mL (≈ 7.69 µM)
- MIC [16]: 12.5 µg/mL (≈ 30.8 µM)
- MIC (Providencia sp 164): 25 µg/mL (≈ 61.7 µM)
- MIC [17]: 0.04 µg/mL (≈ 0.0986 µM)
- MIC (Bacillus subtilis KY4273): 0.04 µg/mL (≈ 0.0986 µM)
- MIC [18]: 0.32 µg/mL (≈ 0.789 µM)
- MIC [19]: 0.63 µg/mL (≈ 1.55 µM)
- MIC [20]: 0.16 µg/mL (≈ 0.395 µM)
- MIC [21]: 0.16 µg/mL (≈ 0.395 µM)
